The values below are quoted from earlier work in patent US20250213575A1, “8-HETEROCYCLIC-3-(PHENYLSULFONYL)-[1,2,3]TRIAZOLO[1,5A]QUINAZOLIN-5(4H)-ONE DERIVATIVES AS ANTI-BACTERIALS” (priority 2022, published 2025).

The test system of this data set is AgrA-regulated toxin gene transcription such as hla, psma and pvl. As to conditions: across all four agr groups; cited from earlier work.

Regarding `CC(C)c1ccc(S(=O)(=O)c2nnn3c2nc(O)c2ccccc23)cc1` [Savirin], the “modulation of AgrA-regulated toxin gene transcription” value is “potent modulator”.
